Measured values reported in US10668040B2, “Treatment of urea cycle disorders in neonates and infants” (Horizon Therapeutics, LLC, priority 2017, dated 2020).

What was measured:
Type in all cases: in vivo, human
[1] = tested on: pediatric patients with UCDs; assay: HPN-100-012 switch-over study: 24-hour blood ammonia on HPN-100 vs NaPBA
Text: HPN-100-012 was an open-label, fixed sequence, switch-over study of the safety, PK and efficacy of HPN-100 compared to NaPBA in patients with UCDs, with a 12-month safety extension part. […] After review of all the safety data by the DSMB, 8 additional subjects were enrolled in the study after the switch-over phase was completed.

UCD patients = assay: HPN-100-009 (Example 2): treatment-emergent, serious and non-serious adverse events; details: Age 2 Months to <2 Years
Text: Number of Subjects with Treatment-Emergent Adverse Events (TEAEs), Serious TEAEs, Deaths, and Discontinuations Due to TEAEs.
End point description. An adverse event (AE) was any untoward medical occurrence, whether or not the event is considered related to the study drug. […] TEAEs were defined as AEs with an onset date on or after the first dose of study medication until study discontinuation. The Investigator assessed the causal relationship of each TEAE to the study drug as not related, possibly related, or probably related. Safety population: all enrolled subjects who received any amount of study medication. End point timeframe: up to 370 days.
Adverse Events Information.
Timeframe for reporting adverse events: From first dose of study treatment up to 370 days (data cutoff); median (full range) duration of treatment was 4.68 (0.2 to 10.9) months. Adverse event reporting additional description: TEAEs (defined as AEs with an onset date on or after the first dose of study medication until study discontinuation) are presented.

[2] = Example 3: urinary PAGN concentrations (first full day and up to end of trial)
Experimental: Urinary PAGN Concentrations on the First Full Day of RAVICTI Dosing
PK Evaluable Population: all subjects from the safety population with individual concentration-time profiles that allow computation of meaningful PK parameter values. Measurements were taken at hour 0, between 0.5 and 1.5 hours, between 1.5 and 2.5 hours, between 4 and 6 hours, between 7.5 and 8.5 hours, and between 12 and 24 hours after the first dose of the day on day 1 for stable subjects and on day 2 for subjects in HAC.
Urinary PAGN Concentrations Up to End of Trial
PK Evaluable Population: all subjects from the safety population with individual concentration-time profiles that allow computation of meaningful PK parameter values. Measurements were taken at day 7, month 1, month 2, month 3, month 4, month 5, month 6, month 9, month 12, month 15, month 18, month 24, and at the end of the trial.

[3] = original scale, non-inferiority upper margin 1.25

With `O=C(CCCc1ccccc1)OCC(COC(=O)CCCc1ccccc1)OC(=O)CCCc1ccccc1` [RAVICTI, benzenebutanoic acid, 1′,1″-(1,2,3-propanetriyl) ester] the Mean blood ammonia ([1]; 8-h time point, HPN-100 Day 10) was 23.20 µmol/L, the Mean blood ammonia ([1]; 12-hour time point, HPN-100 Day 10, NaPBA Day 1) was 28.24 µmol/L and the “upper 90% CI, blood ammonia 24-hour AUC HPN-100 vs NaPBA” value [1, 3] was 1.002. The “upper 95% CI, blood ammonia 24-hour AUC HPN-100 vs NaPBA” value [1, 3] was 1.055, the “median difference between treatments in ammonia AUC (HPN-100 vs NaPBA)” value ([1]; pediatric UCD patients 29 days to <6 years) was -37.84 µmol·h/L and the “24-hour AUC for blood ammonia, HPN-100 (Day 10) compared with NaPBA (Day 1)” value ([1]; pediatric UCD patients 29 days to <6 years, non-inferiority upper margin 1.25) was “non-inferior to NaPBA”. The “Mean blood ammonia levels following an overnight fast” value ([1]; pre-dose and 24 hours post dose) was “normal”, the “Non-serious AE Anaemia: Occurrences (All)” value (UCD patients) was 1 and the “Non-serious AE Apnoeic Attack: Occurrences (All)” value (UCD patients) was 1. For the same compound, the “Non-serious AE Cough: Occurrences (All)” value (UCD patients) was 1, the “Non-serious AE Deep Vein Thrombosis: Occurrences (All)” value (UCD patients) was 1 and the “Non-serious AE Diarrhoea: Occurrences (All)” value (UCD patients) was 1. The “Non-serious AE Gross Motor Delay: Occurrences (All)” value (UCD patients) was 1, the “Non-serious AE Hypophagia: Occurrences (All)” value (UCD patients) was 1 and the “Non-serious AE Infections (Gastroenteritis): Occurrences (All)” value (UCD patients) was 1. The “Non-serious AE Infections (Nasopharyngitis): Occurrences (All)” value (UCD patients) was 1, the “Non-serious AE Infections (Upper Respiratory Tract): Occurrences (All)” value (UCD patients) was 4 and the “Non-serious AE Infections (Urinary Tract): Occurrences (All)” value (UCD patients) was 1. The “Non-serious AE Infections (Viral): Occurrences (All)” value (UCD patients) was 1, the “Non-serious AE Metabolic Acidosis: Occurrences (All)” value (UCD patients) was 1 and the “Non-serious AE Nail Ridging: Occurrences (All)” value (UCD patients) was 1. For the same compound, the “Non-serious AE Rash: Occurrences (All)” value (UCD patients) was 2, the “Non-serious AE Rhinorrhoea: Occurrences (All)” value (UCD patients) was 1 and the “Non-serious AE Stoma Site Reaction: Occurrences (All)” value (UCD patients) was 1. For the same compound, the “Non-serious AE Teething: Occurrences (All)” value (UCD patients) was 1, the “Non-serious AE Tibia Fracture: Occurrences (All)” value (UCD patients) was 1 and the “Non-serious AE Vesicoureteric Reflux: Occurrences (All)” value (UCD patients) was 1. For the same compound, the “Non-serious AE Vomiting: Occurrences (All)” value (UCD patients) was 3, the “Number of Deaths (All Causes)” value (UCD patients) was 1 and the “Serious AE Apnoeic Attack: Deaths Causally Related to Treatment/All” value (UCD patients) was 0/0. The “Serious AE Apnoeic Attack: Occurrences Causally Related to Treatment/All” value (UCD patients) was 0/2, the “Serious AE Hyperammonaemia: Deaths Causally Related to Treatment/All” value (UCD patients) was 0/0 and the “Serious AE Hyperammonaemia: Occurrences Causally Related to Treatment/All” value (UCD patients) was 0/8. For the same compound, the “Serious AE Infections (Croup): Deaths Causally Related to Treatment/All” value (UCD patients) was 0/0, the “Serious AE Infections (Croup): Occurrences Causally Related to Treatment/All” value (UCD patients) was 0/1 and the “Serious AE Infections (Gastroenteritis): Deaths Causally Related to Treatment/All” value (UCD patients) was 0/0. The “Serious AE Infections (Gastroenteritis): Occurrences Causally Related to Treatment/All” value (UCD patients) was 0/1, the “Serious AE Infections (Urinary Tract): Deaths Causally Related to Treatment/All” value (UCD patients) was 0/0 and the “Serious AE Infections (Urinary Tract): Occurrences Causally Related to Treatment/All” value (UCD patients) was 0/1. For the same compound, the “Serious AE Infections (Viral): Deaths Causally Related to Treatment/All” value (UCD patients) was 0/0, the “Serious AE Infections (Viral): Occurrences Causally Related to Treatment/All” value (UCD patients) was 0/1 and the “Serious AE Pneumatosis: Deaths Causally Related to Treatment/All” value (UCD patients) was 0/1. The “Serious AE Pneumatosis: Occurrences Causally Related to Treatment/All” value (UCD patients) was 0/1, the “Subjects with fatal outcome TEAE” value (UCD patients; 10 analyzed, up to 370 days) was 1 Subjects and the “Subjects with ≥1 Related TEAE” value (UCD patients; 10 analyzed, up to 370 days) was 4 Subjects. For the same compound, the “Subjects with ≥1 Serious Related TEAE” value (UCD patients; 10 analyzed, up to 370 days) was 0 Subjects, the “Subjects with ≥1 Serious TEAE” value (UCD patients; 10 analyzed, up to 370 days) was 6 Subjects and the “Subjects with ≥1 TEAE” value (UCD patients; 10 analyzed, up to 370 days) was 10 Subjects. For the same compound, the “Subjects with ≥1 TEAE Leading to Study Discontinuation” value (UCD patients; 10 analyzed, up to 370 days) was 1 Subjects, the “Urinary PAGN concentration” value ([2]; Age 0 to <2 months, Day 7) was 4643 (±2506); μg/mL and the “Urinary PAGN concentration” value ([2]; Age 0 to <2 months, End of trial) was 6939 (±6581); μg/mL. The “Urinary PAGN concentration” value ([2]; Age 0 to <2 months, Month 1) was 4517 (±2485), μg/mL, the “Urinary PAGN concentration” value ([2]; Age 0 to <2 months, Month 2) was 4116 (±3137); μg/mL and the “Urinary PAGN concentration” value ([2]; Age 0 to <2 months, Month 3) was 7037 (±4493); μg/mL. The “Urinary PAGN concentration” value ([2]; Age 0 to <2 months, Month 4) was 2826 (±1543); μg/mL, the “Urinary PAGN concentration” value ([2]; Age 0 to <2 months, Month 5) was 6973 (±3682); μg/mL and the “Urinary PAGN concentration” value ([2]; Age 0 to <2 months, Month 6) was 5883 (±3128); μg/mL. For the same compound, the “Urinary PAGN concentration” value ([2]; Age 0 to <2 months, Month 9) was 7006 (±4289); μg/mL, the “Urinary PAGN concentration” value ([2]; Age 0 to <2 months, Month 12) was 5847 (±2992); μg/mL and the “Urinary PAGN concentration” value ([2]; Age 0 to <2 months, Month 15) was 3915 (±2584); μg/mL. The “Urinary PAGN concentration” value ([2]; Age 0 to <2 months, first full day, 0.5 to 1.5 hours) was 1828 (±2862); μg/mL, the “Urinary PAGN concentration” value ([2]; Age 0 to <2 months, first full day, 1.5 to 2.5 hours) was 1746 (±1464); μg/mL and the “Urinary PAGN concentration” value ([2]; Age 0 to <2 months, first full day, 4 to 6 hours) was 2260 (±1472); μg/mL. For the same compound, the “Urinary PAGN concentration” value ([2]; Age 0 to <2 months, first full day, 7.5 to 8.5 hours) was 3530.43 (±3600.4), μg/mL, the “Urinary PAGN concentration” value ([2]; Age 0 to <2 months, first full day, 12 to 24 hours) was 4404 (±3766); μg/mL and the “Urinary PAGN concentration” value ([2]; Age 0 to <2 months, first full day, Hour 0) was 3530.43 (±3600.4); μg/mL. The “Urinary PAGN concentration” value ([2]; Age 2 months to <2 years, Day 7) was 8859 (±10500); μg/mL, the “Urinary PAGN concentration” value ([2]; Age 2 months to <2 years, End of trial) was 25333 (±21324); μg/mL and the “Urinary PAGN concentration” value ([2]; Age 2 months to <2 years, Month 1) was 6274 (±4802); μg/mL. The “Urinary PAGN concentration” value ([2]; Age 2 months to <2 years, Month 2) was 7386 (±6419); μg/mL, the “Urinary PAGN concentration” value ([2]; Age 2 months to <2 years, Month 3) was 11456 (±14471); μg/mL and the “Urinary PAGN concentration” value ([2]; Age 2 months to <2 years, Month 4) was 21416 (±33695); μg/mL. For the same compound, the “Urinary PAGN concentration” value ([2]; Age 2 months to <2 years, Month 5) was 6129 (±8024); μg/mL, the “Urinary PAGN concentration” value ([2]; Age 2 months to <2 years, Month 6) was 5347 (±3153); μg/mL and the “Urinary PAGN concentration” value ([2]; Age 2 months to <2 years, Month 9) was 9357 (±7286); μg/mL. The “Urinary PAGN concentration” value ([2]; Age 2 months to <2 years, Month 12) was 2580 (±286); μg/mL, the “Urinary PAGN concentration” value ([2]; Age 2 months to <2 years, Month 15) was 6400 (±00000); μg/mL and the “Urinary PAGN concentration” value ([2]; Age 2 months to <2 years, Month 18) was 5250 (±00000); μg/mL. The “Urinary PAGN concentration” value ([2]; Age 2 months to <2 years, first full day, 0.5 to 1.5 hours) was 4140 (±4399); μg/mL, the “Urinary PAGN concentration” value ([2]; Age 2 months to <2 years, first full day, 1.5 to 2.5 hours) was 3145 (±5045); μg/mL and the “Urinary PAGN concentration” value ([2]; Age 2 months to <2 years, first full day, 4 to 6 hours) was 5202 (±4547); μg/mL. For the same compound, the “Urinary PAGN concentration” value ([2]; Age 2 months to <2 years, first full day, 7.5 to 8.5 hours) was 3950 (±3068); μg/mL, the “Urinary PAGN concentration” value ([2]; Age 2 months to <2 years, first full day, 12 to 24 hours) was 7561 (±6956); μg/mL and the “Urinary PAGN concentration” value ([2]; Age 2 months to <2 years, first full day, Hour 0) was 3273 (±1993); μg/mL.
